Assay results published in patent publication US11186567B2, “AMPA receptor potentiators” (UNIVERSITY COLLEGE CARDIFF CONSULTANTS LIMITED, priority 2017, dated 2021).

What was measured:
[1] = Intrinsic clearance (CLi), rat; type: in vitro ADME; details: 0.5 mg/mL microsomes, 2 μM test article, 2 mM NADPH, 37° C.
Experimental: (§1) For example, compounds of the invention preferably have a CLi of less than 100 μL/min/mg in rat and human microsomes. The CLi can be measured using known methods, such as those illustrated in the Examples.
(§2) The in-vitro intrinsic clearance of the compounds was measured in rat and human […] using the following assay.
(§3) 5 μL microsomes (20 mg/ml, Corning BV) diluted into 95 μL PBS (pH 7) containing 0.2% DMSO and 4 μM test article were incubated at 37° C. shaking at 1000 rpm prior the addition of 100 μL of pre-warmed 4 mM NADPH in PBS (final concentrations: 0.5 mg/mL microsomes, 2 μM test article, 0.1% DMSO and 2 mM NADPH). After mixing thoroughly the T=0 sample (40 μL) was immediately quenched into ice cold methanol containing 2 μM internal standard (Carbemazapine). Three further samples were quenched in the same way at 3, 9 and 30 min. Samples were incubated on ice for 30 min before centrifugation at 4000 rpm+ for […]. The supernatant was analysed via LCMS and the test article:carbemazapine peak area ratios calculated to determine the rate of substrate depletion.

[2] = Intrinsic clearance (CLi), human; type: in vitro ADME; details: 0.5 mg/mL microsomes, 2 μM test article, 2 mM NADPH, 37° C.
Experimental: as §1, §2, §3

CLi Rat [1] [µL/min/mg] | CLi human [2] [µL/min/mg] | Structure (SMILES)
878 | 71 | Cc1c(Cl)c(C(F)(F)F)nn1-c1ccc(CN2CCCC2=O)cc1 [Comparative Example, reference compound]
8.4 | 4.3 | Cc1c(CO)c(C(F)(F)F)nn1-c1ccc(CN2CCCC2=O)cc1 [Example 1, 1-[[4-[4-(Hydroxymethyl)-5-methyl-3-(trifluoromethyl)pyrazol-1-yl]phenyl]methyl]pyrrolidin-2-one]
3.7 | 2.6 | CCc1c(CO)c(C(F)(F)F)nn1-c1ccc(CN2CCCC2=O)cc1 [Example 2, 1-[[4-[5-Ethyl-4-(hydroxymethyl)-3-(trifluoromethyl)pyrazol-1-yl]phenyl]methyl]pyrrolidin-2-one]
2.2 | 7.9 | CC(C)c1c(CO)c(C(F)(F)F)nn1-c1ccc(CN2CCCC2=O)cc1 [Example 3, 1-[[4-[4-(Hydroxymethyl)-5-isopropyl-3-(trifluoromethyl)pyrazol-1-yl]phenyl]methyl]pyrrolidin-2-one]
87.4 | 47.4 | COCc1c(C)c(C(F)(F)F)nn1-c1ccc(CN2CCCC2=O)cc1 [Example 5, 1-[[4-[5-(Methoxymethyl)-4-methyl-3-(trifluoromethyl)pyrazol-1-yl]phenyl]methyl]pyrrolidin-2-one]
70.2 | 6.2 | Cc1c(C(F)(F)F)nn(-c2ccc(CN3CCCC3=O)cc2)c1C#N [Example 6, 4-Methyl-2-[4-[(2-oxopyrrolidin-1-yl)methyl]phenyl]-5-(trifluoromethyl)pyrazole-3-carbonitrile]
37.7 | 31.1 | Cc1c(C(F)(F)F)nn(-c2ccc(CN3CCCC3=O)cc2)c1C(C)O (centres unmarked) [Example 7, 1-[[4-[5-(1-Hydroxyethyl)-4-methyl-3-(trifluoromethyl)pyrazol-1-yl]phenyl]methyl]pyrrolidin-2-one]
